Values of other authors, collected in patent US11890293B2, “Synthetic composition for treating metabolic disorders” (GLYCOM A/S, priority 2014, dated 2024).

How the values were obtained:
[1] = system: type 2 diabetes-model mice; settings: oral doses

In the case of `CC(=O)N[C@H]1[C@H](O[C@H]2[C@@H](O)[C@@H](CO)O[C@@H](O[C@H]3[C@H](O)[C@@H](O)C(O)O[C@@H]3CO)[C@@H]2O)O[C@H](CO)[C@@H](O[C@@H]2O[C@H](CO)[C@H](O)[C@H](O)[C@H]2O)[C@@H]1O` (mixture of isomers) [LNnT, lacto-N-neotetraose], the insulin secretion [1] is listed as “promote insulin secretion”.
For `CC(=O)N[C@H]1[C@H]([C@H](O)[C@H](O)CO)O[C@@](O[C@H]2[C@@H](O)[C@@H](CO)O[C@@H](O[C@H]3[C@H](O)[C@@H](O)C(O)O[C@@H]3CO)[C@@H]2O)(C(=O)O)C[C@@H]1O` (stereo partly shown) [3′-SL, 3′-sialyllactose], the “fat accumulation in the liver and other organs” value (“fat accumulation” for short) (high-fat diet rats) is listed as “reduce/prevent fat accumulation in the liver and other organs”, the insulin secretion [1] is listed as “promote insulin secretion” and the “fat accumulation” value (high-fat diet mice) is listed as “reduce/prevent fat accumulation in the liver and other organs”.
For `CC(=O)N[C@H]1[C@H]([C@H](O)[C@H](O)CO)O[C@@](OC[C@H]2O[C@@H](O[C@H]3[C@H](O)[C@@H](O)[C@H](O)O[C@@H]3CO)[C@H](O)[C@@H](O)[C@H]2O)(C(=O)O)C[C@@H]1O` [6′-SL, 6′-sialyllactose], the “fat accumulation” value (high-fat diet rats) is given as “reduce/prevent fat accumulation in the liver and other organs”, the insulin secretion [1] is given as “promote insulin secretion” and the “fat accumulation” value (high-fat diet mice) is given as “reduce/prevent fat accumulation in the liver and other organs”.
